From US11617740B2, “Chemical inhibitors of Mycobacterium tuberculosis DosRST signaling and persistence” (priority 2017, dated 2023) come the findings set out here.

In brackets after ≈: the same amount, converted by molar mass. Entries after “also recorded” stand apart in the source; their conditions may differ. Like-named read-outs stand apart in the source and are kept apart here.

The target of one series is DosS (Mycobacterium tuberculosis, UniProt P9WGK3). Briefly: DosS autophosphorylation assay. The class given is biochemical. The note with it: 10-40 μM; HC103A 40 μM. As for the experimental part:
Autophosphorylation assay. The DosS autophosphorylation assay was performed as previously described. DosS protein was treated with 10 μM, 20 μM or 40 μM of HC104A, or HC106A. DMSO and 40 μM HC103A were also included as […].

The test system of series [1] is DosR-regulated genes hspX and tgs1. Format: cell-based. The conditions noted are these: 20 μM, 6 d.
For series [2] the test system is unchanged. Format: cell-based. The note with it: pretreated 24 h.
The subject of series [3] is DosRST signaling, CDC1551 (hspX′::GFP). Briefly: microbe, parasite or virus in culture. The class given is cell-based. The conditions noted are these: 200 nM HC106A alone.
A further series concerns TAG accumulation in Mtb. Format: cell-based. The conditions noted are these: 40 μM, 6 d, vs DMSO treated WT.
For a further series, the system named is Mtb CDC1551. The class given is cell-based.
The subject of series [4] is DosR-controlled genes hspX and tgs1. Format: cell-based. The note with it: 40 μM, 48 h, infected macrophages.
A further series concerns DosR regulon. Format: cell-based. The note with it: WT CDC1551, 40 μM.
A further series deals with Mtb. Format: cell-based, Mycobacterium tuberculosis.
The test system of series [5] is DosR regulated genes dosR, hspX, tgs1. Format: cell-based. The note with it: for inhibition of hspX and tgs1 gene expression during hypoxia: 10 μM, real-time PCR. (In general: Quantitative PCR measures a nucleic acid by following its amplification.)

Sequence of DosS (P9WGK3 whole entry): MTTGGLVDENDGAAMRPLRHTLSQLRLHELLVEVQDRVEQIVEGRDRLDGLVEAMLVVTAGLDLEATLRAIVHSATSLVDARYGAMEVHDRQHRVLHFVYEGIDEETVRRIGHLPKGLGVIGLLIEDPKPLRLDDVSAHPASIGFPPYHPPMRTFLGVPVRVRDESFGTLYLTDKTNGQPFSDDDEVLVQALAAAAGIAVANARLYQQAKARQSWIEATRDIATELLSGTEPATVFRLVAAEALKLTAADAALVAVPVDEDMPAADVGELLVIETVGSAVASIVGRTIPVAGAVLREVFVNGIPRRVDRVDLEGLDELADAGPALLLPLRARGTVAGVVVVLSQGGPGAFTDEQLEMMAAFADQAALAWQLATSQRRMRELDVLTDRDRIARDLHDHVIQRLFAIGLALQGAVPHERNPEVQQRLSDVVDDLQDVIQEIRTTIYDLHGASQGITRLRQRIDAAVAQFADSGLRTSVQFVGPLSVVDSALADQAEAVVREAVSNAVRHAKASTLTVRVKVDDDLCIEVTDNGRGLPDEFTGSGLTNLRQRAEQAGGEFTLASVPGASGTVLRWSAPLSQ

The term solubility denotes the concentration that dissolves in the medium under given conditions. A higher solubility goes with a readily soluble substance. `O=C(Nc1ccno1)Nc1ccc(Cl)cc1Cl` [HC106A]: the “effect on DosS autophosphorylation” value on DosS was “no inhibitory activity; also recorded: no effect”. The compound further showed a solubility in “physchem” of 110 µM (≈ 29.9 µg/mL). Further, in series [1] (pVV16-DosS), the “inhibition of hspX, DosS overexpression” value stood at 23 fold and the “inhibition of tgs1, DosS overexpression” value was determined as 16.5 fold. Further, in [1] (pVV16 empty vector), the “downregulation of hspX, vector control” value came to 2331 fold and the “downregulation of tgs1, vector control” value is listed as 3470 fold. In addition, in series [2] (DETA-NONOate 2 h), the “inhibition of hspX following DETA-NONOate treatment” value turned out to be 362 fold and the “inhibition of tgs1 following DETA-NONOate treatment” value is given as 151 fold. In [2] (vitamin C 2 h), the “inhibition of hspX transcripts following vitamin C treatment” value worked out at 78 fold and the “inhibition of tgs1 transcripts following vitamin C treatment” value amounted to 14 fold. Moreover, the “effect on DosRST signaling alone” value in series [3] is “no effect on its own”. Also, the “reduction of TAG accumulation” value in the series on TAG accumulation in Mtb is about 50%. In addition, in the series with Mtb CDC1551 (40 μM, 10 days), the “survival relative to DMSO control during NRP” value was 50%. Also, the “reduction of survival as compared to DMSO control” value in the series with Mtb CDC1551 (hypoxic shift-down model) came out at 50%. Also, in series [4], the “inhibition of hspX induction” value stood at 6 fold and the “inhibition of tgs1 induction” value turned out to be 4 fold. Besides, in the series on DosR regulon, the “additional genes repressed that were not repressed in CDC1551(ΔdosR)” value stood at 35 genes. Also, the “genes from dosR regulon inhibited” value in the series on DosR regulon (>2-fold, q<0.05) came out at 53 genes. For the same compound, the “impact on Mtb growth” value with Mtb is on record as “minimal impact”. The “inhibition of hspX and tgs1 gene expression during hypoxia” value in [5] is “repressed to undetectable levels”. Also, the “inhibition of hspX and tgs1 gene expression during hypoxia” value in [5] (listed as H106A) is listed as “strongly inhibited”. Also, in [5] (40 μM, 6 d, in vitro), the “downregulation of dosR” value amounted to 49 fold, the “downregulation of hspX” value was determined as 1360 fold and the “downregulation of tgs1” value was determined as 1424 fold.
